This note sets out measurements from US9120749B2, “Quinoline derivatives and MELK inhibitors containing the same” (ONCOTHERAPY SCIENCE, INC., priority 2010, dated 2015).

Assay [1] relates to T47D cells. As to the kind of experiment: Cell-based assay: anti-proliferative activity, Cell Counting Kit-8, 72 hours (T47D). Summed up:
(§1)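 Anti-MELK western blot on crude lysates → MELK status per line. Cells plated 96-well, compound exposure, CCK-8 readout at 72 h; IC50 calculated.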

Assay [2] has as its system A549 cells. As to the kind of experiment: Cell-based assay: anti-proliferative activity, Cell Counting Kit-8, 72 hours (A549). The conditions noted are these: 72 hours. Summed up: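 A549 cells were seeded in 96-well plates and exposed to candidate inhibitors for 72 hours. Cell growth was then measured with Cell Counting Kit-8, and IC50 values were calculated from the resulting growth data.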

In assay [3] the target is MELK (Homo sapiens, UniProt Q14680). Briefly: Kinase assay: MELK activity, phosphorylation of FITC-labeled histone H3 peptide measured by IMAP fluorescence polarization. The conditions noted are these: for IC50: read-out: IC50 (μM) (kinase assay). Format: biochemical. Summed up:
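Compounds, serially diluted from 12.5 mM DMSO stocks to 1% final DMSO, were tested with FITC-labeled histone H3 peptide as substrate. The reaction was stopped with progressive binding solution. Fluorescence polarization was read after 0.5 hour at room temperature.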

The subject of assay [4] is HT-1197 cells. As to the kind of experiment: Cell-based assay: anti-proliferative activity, Cell Counting Kit-8, 72 hours (HT-1197, negative control without MELK expression). The note with it: HT1197 cells (negative control), 72 hours. Summed up:
as §1

Assay [5] relates to DU4475 cells. As to the kind of experiment: Cell-based assay: anti-proliferative activity, Cell Counting Kit-8, 72 hours (DU4475).

pIC50: −log10 of the molar value. Counter-ions that a name gives are not always drawn. Like-named read-outs stand apart in the source and are kept apart here.

Chain of MELK (Q14680 whole entry, looked up): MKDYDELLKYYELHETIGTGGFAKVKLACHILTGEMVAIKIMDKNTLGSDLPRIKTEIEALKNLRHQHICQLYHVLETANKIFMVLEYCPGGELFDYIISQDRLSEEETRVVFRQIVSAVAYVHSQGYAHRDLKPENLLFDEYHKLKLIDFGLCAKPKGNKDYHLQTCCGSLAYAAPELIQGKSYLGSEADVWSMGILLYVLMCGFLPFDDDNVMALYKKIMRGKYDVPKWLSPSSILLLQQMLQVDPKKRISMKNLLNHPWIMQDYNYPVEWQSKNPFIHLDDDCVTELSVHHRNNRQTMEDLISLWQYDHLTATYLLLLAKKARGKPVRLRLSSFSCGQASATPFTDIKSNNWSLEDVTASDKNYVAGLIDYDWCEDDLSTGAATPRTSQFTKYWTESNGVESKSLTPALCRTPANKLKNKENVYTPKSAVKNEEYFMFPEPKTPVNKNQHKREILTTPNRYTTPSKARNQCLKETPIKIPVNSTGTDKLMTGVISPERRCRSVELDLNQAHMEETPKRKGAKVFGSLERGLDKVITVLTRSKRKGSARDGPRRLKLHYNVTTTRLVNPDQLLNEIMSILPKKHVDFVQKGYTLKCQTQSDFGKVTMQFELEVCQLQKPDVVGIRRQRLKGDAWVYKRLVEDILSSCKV

For the compound `CC(=O)c1cnc2ccc(-c3cc(Cl)c(O)c(Cl)c3)cc2c1Nc1ccc(C(N)=O)cc1` [Example 545, 4-(3-acetyl-6-(3,5-dichloro-4-hydroxyphenyl)quinolin-4-ylamino)benzamide], the IC50 in assay [1] (Homo sapiens, T47D, 72 h) worked out at 0.62 µM; in assay [2] (Homo sapiens, A549, 72 h) it was 3.9 µM; in assay [3] it was 0.019 µM; in assay [4] (Homo sapiens, HT1197, 72 h), 16 µM; in assay [5] (Homo sapiens, DU-4475, 72 h) it was 0.56 µM.

With `COc1cc(-c2ccc3ncc(C(=O)C4CC4)c(Nc4ccc(C(N)=O)cc4)c3c2)cc(Cl)c1O` [Example 546, 4-(6-(3-chloro-4-hydroxy-5-methoxyphenyl)-3-(cyclopropanecarbonyl)quinolin-4-ylamino)benzamide], the half-maximal inhibitory concentration (IC50) in assay [1] (Homo sapiens, T47D, 72 h) is 1.1 µM; in assay [2] (Homo sapiens, A549, 72 h), 1 µM; in assay [3] it was 0.04 µM; in assay [4] (Homo sapiens, HT1197, 72 h) it was 12 µM; in assay [5] (Homo sapiens, DU-4475, 72 h), 1 µM.

Take `CN(C)Cc1ccc(Nc2c(C(=O)C3CC3)cnc3cc(F)c(-c4cc(Cl)c(O)c(Cl)c4)cc23)cc1` [Example 547, cyclopropyl(6-(3,5-dichloro-4-hydroxyphenyl)-4-(4-((dimethylamino)methyl)phenylamino)-7-fluoroquinolin-3-yl)methanone]: the IC50 in assay [1] (Homo sapiens, T47D, 72 h) was determined as 0.41 µM; in assay [2] (Homo sapiens, A549, 72 h) it was 0.13 µM; in assay [3] it was 0.02 µM; in assay [4] (Homo sapiens, HT1197, 72 h), 1.9 µM; in assay [5] (Homo sapiens, DU-4475, 72 h), 0.14 µM.

`NC1CCN(c2ccc(Nc3c(C(=O)C4CC4)cnc4ccc(-c5cc(Cl)c(O)c(Cl)c5)cc34)cn2)CC1` [Example 548, (4-(6-(4-aminopiperidin-1-yl)pyridin-3-ylamino)-6-(3,5-dichloro-4-hydroxyphenyl)quinolin-3-yl)(cyclopropyl)methanone]: the IC50 was 0.097 µM in assay [1] (Homo sapiens, T47D, 72 h); 0.45 µM in assay [2] (Homo sapiens, A549, 72 h); 0.002 µM in assay [3]; 3.4 µM in assay [4] (Homo sapiens, HT1197, 72 h); 0.099 µM in assay [5] (Homo sapiens, DU-4475, 72 h).

For `NC1CCN(c2ccc(Nc3c(C(=O)C4CC4)cnc4ccc(-c5cc(Cl)c(O)c(Cl)c5)cc34)cn2)CC1` [Example 549, (4-(6-(4-Aminopiperidin-1-yl)pyridin-3-ylamino)-6-(3,5-dichloro-4-hydroxyphenyl)quinolin-3-1)(cyclopropyl)methanone hydrochloride], the IC50 in assay [1] (72 hours, hydrochloride) was found to be 0.15 µM; in assay [2] (hydrochloride), 0.48 µM; in assay [3] (hydrochloride), 0.0027 µM; in assay [4] (hydrochloride) it was 3.2 µM; in assay [5] (hydrochloride), 0.078 µM.

As for `COc1cc(-c2ccc3ncc(C(=O)C4CC4)c(Nc4ccc(N5CCC(N)CC5)nc4)c3c2)cc(Cl)c1O` [Example 550, (4-(6-(4-aminopiperidin-1-yl)pyridin-3-ylamino)-6-(3-chloro-4-hydroxy-5-methoxyphenyl)quinolin-3-yl)(cyclopropyl)methanone], the IC50 in assay [1] (Homo sapiens, T47D, 72 h) amounted to 0.1 µM; in assay [2] (Homo sapiens, A549, 72 h) it was 0.58 µM; in assay [3] it was 0.0057 µM; in assay [4] (Homo sapiens, HT1197, 72 h), 2.7 µM; in assay [5] (Homo sapiens, DU-4475, 72 h), 1 µM.

For `COc1cc(-c2ccc3ncc(C(=O)C4CC4)c(Nc4cnc(N5CCC(N)CC5)nc4)c3c2)cc(Cl)c1O` [Example 553, (4-(2-(4-aminopiperidin-1-yl)pyrimidin-5-ylamino)-6-(3-chloro-4-hydroxy-5-methoxyphenyl)quinolin-3-yl)(cyclopropyl)methanone], the IC50 in assay [1] (Homo sapiens, T47D, 72 h) was 0.12 µM; in assay [2] (Homo sapiens, A549, 72 h), 0.39 µM; in assay [3] it was 0.0056 µM; in assay [4] (Homo sapiens, HT1197, 72 h), 2.1 µM; in assay [5] (Homo sapiens, DU-4475, 72 h) it was 0.95 µM.

For `COc1cc(-c2ccc3ncc(C(=O)C4CC4)c(Nc4ccc(N5CCCC(N)C5)nc4)c3c2)cc(Cl)c1O` (stereo not drawn) [Example 554, (4-(6-(3-aminopiperidin-1-yl)pyridin-3-ylamino)-6-(3-chloro-4-hydroxy-5-methoxyphenyl)quinolin-3-yl)(cyclopropyl)methanone], the IC50 is 0.068 µM in assay [1] (Homo sapiens, T47D, 72 h); 0.08 µM in assay [2] (Homo sapiens, A549, 72 h); 0.0031 µM in assay [3]; 1.9 µM in assay [4] (Homo sapiens, HT1197, 72 h); 0.025 µM in assay [5] (Homo sapiens, DU-4475, 72 h).

For `NC1CCCN(c2ccc(Nc3c(C(=O)C4CC4)cnc4ccc(-c5cc(Cl)c(O)c(Cl)c5)cc34)cn2)C1` (stereo not drawn) [Example 556, (4-(6-(3-aminopiperidin-1-yl)pyridin-3-ylamino)-6-(3,5-dichloro-4-hydroxyphenyl)quinolin-3-yl)(cyclopropyl)methanone], the IC50 in assay [1] (Homo sapiens, T47D, 72 h) amounted to 0.03 µM; in assay [2] (Homo sapiens, A549, 72 h) it was 0.023 µM; in assay [3] it was 0.0044 µM; in assay [4] (Homo sapiens, HT1197, 72 h) it was 0.96 µM; in assay [5] (Homo sapiens, DU-4475, 72 h), 0.016 µM.

As for `NC1CCN(c2ccc(Nc3c(C(=O)C4CC4)cnc4ccc(-c5cc(F)c(O)c(Cl)c5)cc34)cn2)CC1` [Example 557, (4-(6-(4-aminopiperidin-1-yl)pyridin-3-ylamino)-6-(3-chloro-5-fluoro-4-hydroxyphenyl)quinolin-3-yl)(cyclopropyl)methanone], the IC50 in assay [1] (Homo sapiens, T47D, 72 h) was found to be 0.11 µM; in assay [2] (Homo sapiens, A549, 72 h), 0.52 µM; in assay [4] (Homo sapiens, HT1197, 72 h) it was 3.1 µM; in assay [5] (Homo sapiens, DU-4475, 72 h), 0.18 µM. The same compound had a pIC50 in assay [3] of 8.25.

On to `CN[C@H]1CC[C@H](Nc2c(C(C)=O)cnc3ccc(-c4cc(Cl)c(O)c(Cl)c4)cc23)CC1` [Example 558], for which the IC50 in assay [1] (Homo sapiens, T47D, 72 h) was found to be 0.094 µM; in assay [2] (Homo sapiens, A549, 72 h), 0.32 µM; in assay [3], 0.0025 µM; in assay [4] (Homo sapiens, HT1197, 72 h), 10 µM; in assay [5] (Homo sapiens, DU-4475, 72 h), 0.043 µM.

Consider `O=C(c1cnc2cc(F)c(-c3cc(Cl)c(O)c(Cl)c3)cc2c1Nc1ccc(N2CCNCC2)nc1)C1CC1` [Example 559, cyclopropyl(6-(3,5-dichloro-4-hydroxyphenyl)-7-fluoro-4-(6-(piperazin-1-yl)pyridin-3-ylamino)quinolin-3-yl)methanone], for which the IC50 in assay [1] (Homo sapiens, T47D, 72 h) was 0.46 µM; in assay [2] (Homo sapiens, A549, 72 h), 0.59 µM; in assay [3], 0.01 µM; in assay [4] (Homo sapiens, HT1197, 72 h), 3.2 µM; in assay [5] (Homo sapiens, DU-4475, 72 h) it was 0.35 µM.

In the case of `NC1CCCN(c2ccc(Nc3c(C(=O)C4CC4)cnc4ccc(-c5cc(F)c(O)c(Cl)c5)cc34)cn2)C1` (stereo not drawn) [Example 561, (4-(6-(3-aminopiperidin-1-yl)pyridin-3-ylamino)-6-(3-chloro-5-fluoro-4-hydroxyphenyl)quinolin-3-yl)(cyclopropyl)methanone], the IC50 was 0.0055 µM in assay [1] (Homo sapiens, T47D, 72 h); 0.008 µM in assay [2] (Homo sapiens, A549, 72 h); 0.0027 µM in assay [3]; 0.3 µM in assay [4] (Homo sapiens, HT1197, 72 h); 0.0066 µM in assay [5] (Homo sapiens, DU-4475, 72 h).

Take `NC1CCCN(c2ccc(Nc3c(C(=O)C4CC4)cnc4ccc(-c5cc(F)c(O)c(Cl)c5)cc34)cn2)C1` (stereo not drawn) [Example 562, (4-(6-(3-aminopiperidin-1-yl)pyridin-3-ylamino)-6-(3-chloro-5-fluoro-4-hydroxyphenyl)quinolin-3-yl)(cyclopropyl)methanone hydrochloride]: the IC50 in assay [1] (72 hours, hydrochloride) is 0.0064 µM; in assay [2] (hydrochloride) it was 0.012 µM; in assay [3] (hydrochloride), 0.0017 µM; in assay [4] (hydrochloride), 0.19 µM; in assay [5] (hydrochloride), 0.0089 µM.

`NC1CCN(c2ncc(Nc3c(C(=O)C4CC4)cnc4ccc(-c5cc(Cl)c(O)c(Cl)c5)cc34)cn2)CC1` [Example 566, (4-(2-(4-aminopiperidin-1-yl)pyrimidin-5-ylamino)-6-(3,5-dichloro-4-hydroxyphenyl)quinolin-3-yl)(cyclopropyl)methanone]: the IC50 in assay [1] (Homo sapiens, T47D, 72 h) came out at 0.11 µM; in assay [2] (Homo sapiens, A549, 72 h), 0.4 µM; in assay [3], 0.003 µM; in assay [4] (Homo sapiens, HT1197, 72 h) it was 2.6 µM; in assay [5] (Homo sapiens, DU-4475, 72 h), 0.13 µM.
